According to PubChem BioAssay (NCI):
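Following 48 hours of exposure in 96-well plates, responses at five concentrations were used to interpolate endpoints linearly. Abbreviation: GI50, concentration required for 50% inhibition of growth. At the TGI there is no net growth.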

What was measured:
Test in all cases: growth of human tumour cells (NCI), 48 h
[1] = tested on: HOP-92 NSCLC
[2] = tested on: LOX IMVI melanoma
[3] = tested on: MCF7 breast
[4] = tested on: NCI-H226 lung
[5] = tested on: NCI-H460 lung
[6] = tested on: OVCAR-3 ovarian
[7] = tested on: OVCAR-8 ovarian
[8] = tested on: SF-539 CNS
[9] = tested on: SK-OV-3 ovarian
[10] = tested on: U251 CNS

SMILES	GI50 [1]	TGI [1]	GI50 [2]	TGI [2]	GI50 [3]	TGI [3]	GI50 [4]	TGI [4]	GI50 [5]	TGI [5]	GI50 [6]	TGI [6]	GI50 [7]	TGI [7]	GI50 [8]	TGI [8]	GI50 [9]	TGI [9]	GI50 [10]	TGI [10]
Cc1c2cnccc2c(C)c2c1c1cc(C3OCCCO3)ccc1n2C	281 nM	1.66 µM	0.146 µM	0.659 µM	0.255 µM	1.35 µM	0.213 µM	0.962 µM	0.293 µM	1.15 µM	0.419 µM	2 µM	0.139 µM	1.95 µM	0.272 µM	1.32 µM	0.325 µM	1.76 µM	0.308 µM	1.33 µM
CCSc1nnc2c(-c3ccccc3)n[nH]c2n1	–	> 100 µM	–	> 100 µM	–	> 100 µM	–	> 100 µM	–	> 100 µM	–	> 100 µM	–	> 100 µM	–	> 100 µM	–	> 100 µM	–	> 100 µM
C[n+]1c(/C=C\C=C\N2CCCCC2)sc2ccccc21	75.8 nM	2.16 µM	0.481 µM	12.9 µM	0.346 µM	11.8 µM	1.05 µM	22.4 µM	0.489 µM	4.37 µM	0.243 µM	5.81 µM	0.384 µM	5.01 µM	1.03 µM	15 µM	0.794 µM	6.79 µM	0.291 µM	15 µM
COc1cc2c(cc1OC)C13CCN4C=C5CCOC6CC(=O)N2C1C6C5CC43 (stereo unspecified)	–	> 100 µM	–	> 100 µM	–	> 100 µM	–	> 100 µM	–	> 100 µM	–	> 100 µM	–	> 100 µM	–	> 100 µM	–	> 100 µM	–	> 100 µM
O=P([O-])(O)OP(=O)([O-])O.[NH-][C@H]1CCCC[C@@H]1[NH-].[OH-].[OH-].[Pt+4]	22000 nM	60.1 µM	33.2 µM	> 100 µM	32.1 µM	> 100 µM	23.2 µM	55 µM	34.5 µM	> 100 µM	21 µM	39 µM	22.7 µM	63.6 µM	22.3 µM	57.6 µM	19.9 µM	38.6 µM	17.2 µM	33.8 µM
Cc1ccccc1NC(=S)Nc1ccccn1	10600 nM	> 100 µM	> 100 µM	> 100 µM	> 100 µM	> 100 µM	> 100 µM	> 100 µM	> 100 µM	> 100 µM	> 100 µM	> 100 µM	> 100 µM	> 100 µM	> 100 µM	> 100 µM	> 100 µM	> 100 µM	> 100 µM	> 100 µM
Cn1cc(-c2nonc2-c2c[nH]c3ccccc23)c2ccccc21	1080 nM	9.91 µM	0.65 µM	13 µM	0.329 µM	15.3 µM	1.43 µM	24.3 µM	0.375 µM	7.78 µM	0.323 µM	2.01 µM	0.545 µM	14.7 µM	0.276 µM	1.07 µM	0.563 µM	18.4 µM	0.443 µM	18.6 µM
CC(=O)N1CCN(C2=Nc3ccccc3CO2)C1=S	34000 nM	> 100 µM	52.4 µM	> 100 µM	38.2 µM	> 100 µM	> 100 µM	> 100 µM	70.5 µM	> 100 µM	51.6 µM	> 100 µM	> 100 µM	> 100 µM	> 100 µM	> 100 µM	> 100 µM	> 100 µM	> 100 µM	> 100 µM
COc1cccc2c1C(=O)c1c(O)c3c(c(O)c1C2=O)CC(O)(C(C)=O)CC3OC1CC(N)C(O)C(C)O1 (stereo unspecified)	0.0155 µg/mL	0.413 µg/mL	0.0166 µg/mL	1.57 µg/mL	–	0.484 µg/mL	–	0.155 µg/mL	–	2.02 µg/mL	0.0426 µg/mL	0.958 µg/mL	0.0205 µg/mL	0.393 µg/mL	–	0.113 µg/mL	0.0312 µg/mL	2.68 µg/mL	0.0151 µg/mL	1.84 µg/mL
C=C(Cn1c(=O)c2ccccc2c2ccccc21)c1ccc(C(=O)Nc2ccccc2N)cc1	689 nM	26.1 µM	7.77 µM	> 100 µM	69.8 µM	> 100 µM	16.7 µM	> 100 µM	21.3 µM	> 100 µM	33.7 µM	> 100 µM	11.8 µM	> 100 µM	21.9 µM	> 100 µM	24.3 µM	> 100 µM	16.3 µM	> 100 µM
COc1ccc(C#Cc2ccccc2C#CCCCCO)cc1	23500 nM	47.7 µM	16.9 µM	30.6 µM	27.2 µM	59.1 µM	17.3 µM	36.1 µM	19.4 µM	39.9 µM	20.4 µM	40.2 µM	18.1 µM	38.6 µM	22.6 µM	42.8 µM	19.9 µM	39.7 µM	12.7 µM	25.3 µM
CN(C)CCCOc1ccccc1NC1=C(Cl)C(=O)C(Nc2ccccc2OCCCN(C)C)=C(Cl)C1=O	1330 nM	2.82 µM	0.18 µM	0.355 µM	0.175 µM	0.398 µM	1.98 µM	4.22 µM	1.32 µM	2.85 µM	0.172 µM	0.319 µM	0.301 µM	0.9 µM	1.66 µM	3.04 µM	1.66 µM	3.02 µM	0.611 µM	1.3 µM
COc1cccc(C2CC(c3cc(OC)c(OC)c(OC)c3)=NN2)c1 (stereo unspecified)	11900 nM	39.2 µM	9.49 µM	21.8 µM	3.85 µM	26.1 µM	28.9 µM	> 100 µM	13.3 µM	35.4 µM	20.2 µM	76.3 µM	13.9 µM	39 µM	5.33 µM	21.1 µM	24.1 µM	72.2 µM	10 µM	22.8 µM
CC/C(Cc1ccccc1)=C(\c1ccc(OCCN2CCCCCC2)cc1)c1ccc(OC(=O)NCc2ccccc2)cc1	3000 nM	9.93 µM	0.924 µM	1.75 µM	0.25 µM	5.33 µM	8.14 µM	17.5 µM	0.966 µM	1.83 µM	1.86 µM	7.13 µM	1.67 µM	4.96 µM	2.43 µM	8.84 µM	7.59 µM	15.2 µM	1.77 µM	5.48 µM
O=[N+]([O-])c1ccc(Nc2ccccc2-c2ccccc2)c2nonc12	3150 nM	23.4 µM	12.8 µM	26.6 µM	15.3 µM	> 72.4 µM	14 µM	40.5 µM	13.1 µM	42.3 µM	9.15 µM	22.8 µM	21.1 µM	75.9 µM	17 µM	39.9 µM	22 µM	> 75.7 µM	13.4 µM	29.3 µM
COC1=CC(c2ccc[nH]2)=N/C1=C\c1[nH]c(C)c(C(=O)OCc2ccccc2)c1C	67.1 nM	0.431 µM	0.0189 µM	0.042 µM	0.0894 µM	0.836 µM	0.132 µM	1.52 µM	0.0476 µM	1.2 µM	0.0621 µM	0.645 µM	0.11 µM	1.75 µM	0.111 µM	1.54 µM	0.824 µM	4.86 µM	0.0616 µM	1.26 µM
OCCOc1ccc(-c2cc(-c3ccccn3)nc(-c3ccccn3)c2)cc1	–	> 100 µM	–	6.43 µM	–	> 100 µM	–	4.55 µM	–	3.69 µM	–	6.67 µM	–	2.6 µM	–	2.26 µM	–	2.17 µM	–	> 100 µM
